Data taken from US20230286919A1, “ISOQUINOLINE DERIVATIVES FOR USE IN THERAPY” (Vestlandets Innovasjonsselskap AS, priority 2020, published 2023).
Like-named read-outs stand apart in the source and are kept apart here.

Columns and labels:
[1] = target: ERBB2 (HER2) (Homo sapiens, UniProt P04626); assay: SelectScreen kinase profiling, ERBB2; type: biochemical; conditions: read-out: Enzyme inhibitory activity IC50
[2] = target: MET (cMet) (Homo sapiens, UniProt P08581); assay: SelectScreen kinase profiling, MET; type: biochemical; conditions: read-out: Enzyme inhibitory activity IC50
[3] = target: TYK2 (Homo sapiens, UniProt P29597); assay: SelectScreen kinase profiling, TYK2; type: biochemical; conditions: read-out: Enzyme inhibitory activity IC50
[4] = target: FRAP1 (mTOR) (Homo sapiens, UniProt P42345); assay: SelectScreen biochemical kinase profiling, FRAP1 (mTOR); conditions: cell free, read-out: Enzyme inhibitory activity IC50
Protocol: (§1) The in vitro kinase inhibitory assays in the presence of compounds 323-1 and 323-2 were carried out according to the Z′-LYTE™ Screening and LanthaScreen Eu Kinase Binding Assays Experimental Procedures in Invitrogen (ThermoFisher Scientific, Waltham, Mass., USA). For the Z′-LYTE™ Screening profiling for FRAP1 (mTOR), JAK3, and LTK (TYK1), a mixture containing the test compounds in 100% DMSO, 2.4 μL Kinase buffer (50 mM HEPES pH 7.5, 0.01% BRIJ-35, 10 mM MgCl2, 1 mM EGTA), 5 μL 2× Peptide/Kinase Mixture, 2.5 μL 4×ATP Solution were added into black 384-well low volume NBS and bar-coded corning plate (Corning Cat. #4514) and shake the plate for 30 seconds. After incubation at RT for 60 min, 5 μL Development Reagent Solution was added into plate and shake the plate for 30 seconds, followed by Development Reaction incubation at RT for 60 min. Read on fluorescence plate reader and analyze the data. […]
(§2) Inhibition by compounds 323-1 and 323-2 of MAP2K4 (MEK4) and TGFBR1 (ALK5) was determined by […]. Inhibition by compounds 323-1 and 323-2 of FRAP1 (mTOR), JAK3, and LTK (TYK1) was determined by […] using the Adapta Universal Kinase Assay (Life Technologies). […]

[5] = target: EGFR (ErbB1) (Homo sapiens, UniProt P00533); assay: SelectScreen kinase profiling, EGFR; type: biochemical; conditions: read-out: Enzyme inhibitory activity IC50
[6] = target: TGFBR1 (ALK5) (Homo sapiens, UniProt P36897); assay: SelectScreen kinase profiling, TGFBR1 (ALK5); type: binding; conditions: cell free, read-out: Enzyme inhibitory activity IC50
Protocol: as §1, §2

[7] = target: FGFR3 (Homo sapiens, UniProt P22607); assay: SelectScreen kinase profiling, FGFR3; type: biochemical; conditions: read-out: Enzyme inhibitory activity IC50
[8] = target: LYN B (Homo sapiens, UniProt P07948); assay: SelectScreen kinase profiling, LYN B; type: biochemical; conditions: read-out: Enzyme inhibitory activity IC50
[9] = target: MAPK1 (ERK2) (Homo sapiens, UniProt P28482); assay: SelectScreen kinase profiling, MAPK1; type: biochemical; conditions: read-out: Enzyme inhibitory activity IC50
[10] = target: MAPK10 (JNK3) (Homo sapiens, UniProt P53779); assay: SelectScreen kinase profiling, MAPK10; type: biochemical; conditions: read-out: Enzyme inhibitory activity IC50
[11] = target: LTK (TYK1) (Homo sapiens, UniProt P29376); assay: SelectScreen biochemical kinase profiling, LTK (TYK1); conditions: cell free, read-out: Enzyme inhibitory activity IC50
Protocol: as §1, §2

[12] = target: MAPK8 (JNK1) (Homo sapiens, UniProt P45983); assay: SelectScreen kinase profiling, MAPK8; type: biochemical; conditions: read-out: Enzyme inhibitory activity IC50
[13] = target: FLT4 (VEGFR3) (Homo sapiens, UniProt P35916); assay: SelectScreen kinase profiling, FLT4; type: biochemical; conditions: read-out: Enzyme inhibitory activity IC50
[14] = target: AKT2 (PKB beta) (Homo sapiens, UniProt P31751); assay: SelectScreen kinase profiling, AKT2; type: biochemical; conditions: read-out: Enzyme inhibitory activity IC50
[15] = target: LYN A (Homo sapiens, UniProt P07948); assay: SelectScreen kinase profiling, LYN A; type: biochemical; conditions: read-out: Enzyme inhibitory activity IC50
[16] = target: MAP2K4 (MEK4) (Homo sapiens, UniProt P45985); assay: SelectScreen kinase profiling, MAP2K4 (MEK4); type: binding; conditions: cell free, read-out: Enzyme inhibitory activity IC50
Protocol: as §1, §2

[17] = target: KDR (VEGFR2) (Homo sapiens, UniProt P35968); assay: SelectScreen kinase profiling, KDR; type: biochemical; conditions: read-out: Enzyme inhibitory activity IC50
[18] = target: T1, Recombinant Human STAT3 protein (SH2 domain) (Homo sapiens, UniProt P40763); assay: Fluorescence Polarization (FP) competition assay, STAT3 / GpYLPQTV-NH2 peptide; type: binding
T1 construct: purchased Abcam ab43618
Protocol: The FP assay was conducted as described by Zhao et al. (J Biol Chem. 2010; 285: 35855-65). The labeled phosphopeptide, 5-FLU-G(P-TYR)LPQTV-NH2 was synthesized by ProImmune (London, UK) with over 95% purity as probe. The Recombinant Human STAT3 protein was purchased from Abcam (ab43618). For saturation curves, various concentration of peptide probe (0-100 nM) and STAT3 protein ([…]) were incubated for 30 min at RT in the buffer (50 mm NaCl, 10 mm HEPES, 1 mm EDTA, 0.1% Nonidet P-40). To obtain the inhibitory effect, drugs (0-1000 μM) and 150 nM human STAT3 were incubated at 37° C. for 1 hour prior to co-incubation with 10 nM of labeled LPQTV peptide at RT for 30 min. […] The fluorescence polarization was then analyzed by the BioTek Synergy™ Neo2 Multi-Mode Microplate Reader (BioTek Instruments, Winooski, Vt., USA). Ki=IC50/(([L])/Kd)+1).
Strategies to target STAT3 SH2 have been pursued recently. These small molecule inhibitors are designed to bind to a site resident in the STAT3 SH2 domain by competing with the p-Tyr705.
As STAT3 may be recruited to gp130 within phosphotyrosine residues, the competitive FP assay was utilized to identify whether 323-1 and 323-2 target STAT3 SH2 domain.
The control was set as 1% DMSO. Data are representative of 2 independent experiments.

[19] = target: MAP2K6 (MKK6) (Homo sapiens, UniProt P52564); assay: SelectScreen kinase profiling, MAP2K6; type: biochemical; conditions: read-out: Enzyme inhibitory activity IC50
[20] = target: PDGFRB (PDGFR beta) (Homo sapiens, UniProt P09619); assay: SelectScreen kinase profiling, PDGFRB; type: biochemical; conditions: read-out: Enzyme inhibitory activity IC50
[21] = 10 nM peptide, 150 nM human STAT3 (FIG. 20), read-out: Ki, disruption of binding of STAT3 to phosphotyrosine peptide GpYLPQTV
[22] = background (autofluorescence) subtracted (FIG. 33), read-out: Ki, protein-ligand interaction after background subtraction

T1 sequence (P40763 whole entry, the tested form may be a part): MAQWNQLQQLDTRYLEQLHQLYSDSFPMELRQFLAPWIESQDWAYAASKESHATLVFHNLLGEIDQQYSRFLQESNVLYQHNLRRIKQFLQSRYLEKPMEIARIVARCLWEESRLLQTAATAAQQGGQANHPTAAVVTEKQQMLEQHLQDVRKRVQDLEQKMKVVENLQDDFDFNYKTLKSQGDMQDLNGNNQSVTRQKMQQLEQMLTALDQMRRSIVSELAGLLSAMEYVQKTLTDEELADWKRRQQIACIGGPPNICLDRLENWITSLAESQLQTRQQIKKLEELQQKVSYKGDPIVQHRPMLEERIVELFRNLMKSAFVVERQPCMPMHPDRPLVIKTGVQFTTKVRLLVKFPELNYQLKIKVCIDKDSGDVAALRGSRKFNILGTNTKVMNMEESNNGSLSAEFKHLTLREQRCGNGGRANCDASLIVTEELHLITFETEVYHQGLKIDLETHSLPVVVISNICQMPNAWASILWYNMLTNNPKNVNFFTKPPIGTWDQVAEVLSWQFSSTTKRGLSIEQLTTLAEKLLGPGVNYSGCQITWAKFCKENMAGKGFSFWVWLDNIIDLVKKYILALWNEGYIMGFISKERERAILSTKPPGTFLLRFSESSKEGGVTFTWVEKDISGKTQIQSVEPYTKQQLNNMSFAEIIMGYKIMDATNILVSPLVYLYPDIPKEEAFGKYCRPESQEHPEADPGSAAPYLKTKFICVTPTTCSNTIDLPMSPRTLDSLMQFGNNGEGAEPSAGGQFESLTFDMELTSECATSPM
Chain of AKT2 (PKB beta) (P31751 whole entry): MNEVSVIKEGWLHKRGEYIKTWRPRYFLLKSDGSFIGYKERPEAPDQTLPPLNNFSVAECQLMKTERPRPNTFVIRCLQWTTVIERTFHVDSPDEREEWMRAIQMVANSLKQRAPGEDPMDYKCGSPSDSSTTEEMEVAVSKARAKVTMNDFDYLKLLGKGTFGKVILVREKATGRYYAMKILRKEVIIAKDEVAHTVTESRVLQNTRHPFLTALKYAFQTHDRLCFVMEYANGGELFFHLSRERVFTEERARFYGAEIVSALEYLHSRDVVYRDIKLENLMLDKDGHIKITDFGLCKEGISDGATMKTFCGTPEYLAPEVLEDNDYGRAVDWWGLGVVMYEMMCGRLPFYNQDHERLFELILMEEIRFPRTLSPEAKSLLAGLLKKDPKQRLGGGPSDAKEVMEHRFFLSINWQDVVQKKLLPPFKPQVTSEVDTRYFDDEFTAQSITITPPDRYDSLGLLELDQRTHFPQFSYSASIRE
Chain of FLT4 (VEGFR3) (P35916 25-1363): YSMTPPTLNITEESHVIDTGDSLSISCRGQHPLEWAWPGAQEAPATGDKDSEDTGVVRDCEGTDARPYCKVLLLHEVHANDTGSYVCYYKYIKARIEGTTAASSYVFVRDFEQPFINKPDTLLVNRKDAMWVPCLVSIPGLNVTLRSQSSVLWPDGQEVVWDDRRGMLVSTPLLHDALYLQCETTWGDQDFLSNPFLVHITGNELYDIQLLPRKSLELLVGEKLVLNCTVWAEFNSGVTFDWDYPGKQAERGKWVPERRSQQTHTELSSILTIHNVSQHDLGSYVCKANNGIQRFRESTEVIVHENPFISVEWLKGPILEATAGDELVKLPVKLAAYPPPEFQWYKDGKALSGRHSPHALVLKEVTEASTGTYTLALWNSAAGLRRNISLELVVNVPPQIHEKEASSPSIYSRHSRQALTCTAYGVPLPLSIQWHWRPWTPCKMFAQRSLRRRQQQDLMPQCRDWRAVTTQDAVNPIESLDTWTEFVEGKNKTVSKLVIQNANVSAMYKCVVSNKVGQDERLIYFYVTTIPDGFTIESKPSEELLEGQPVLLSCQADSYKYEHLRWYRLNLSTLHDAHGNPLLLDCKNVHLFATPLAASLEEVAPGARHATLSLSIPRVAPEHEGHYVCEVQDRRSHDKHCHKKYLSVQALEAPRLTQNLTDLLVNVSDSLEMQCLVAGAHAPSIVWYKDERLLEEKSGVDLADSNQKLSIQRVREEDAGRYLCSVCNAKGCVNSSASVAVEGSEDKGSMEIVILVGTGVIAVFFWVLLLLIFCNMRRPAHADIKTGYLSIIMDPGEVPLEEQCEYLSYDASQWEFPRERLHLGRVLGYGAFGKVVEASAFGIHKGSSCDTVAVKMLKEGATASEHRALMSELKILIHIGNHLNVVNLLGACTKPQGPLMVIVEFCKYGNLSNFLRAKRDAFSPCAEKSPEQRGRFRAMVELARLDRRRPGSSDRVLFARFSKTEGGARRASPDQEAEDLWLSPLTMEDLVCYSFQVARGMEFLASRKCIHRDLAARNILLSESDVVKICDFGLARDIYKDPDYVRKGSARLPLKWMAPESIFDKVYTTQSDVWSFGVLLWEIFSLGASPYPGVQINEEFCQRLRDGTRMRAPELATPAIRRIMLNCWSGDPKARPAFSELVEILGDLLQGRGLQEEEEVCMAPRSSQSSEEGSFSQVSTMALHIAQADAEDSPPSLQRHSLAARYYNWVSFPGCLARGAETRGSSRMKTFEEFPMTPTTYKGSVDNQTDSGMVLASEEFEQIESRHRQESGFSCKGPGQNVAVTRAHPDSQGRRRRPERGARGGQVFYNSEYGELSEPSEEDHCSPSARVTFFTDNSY
Chain of LTK (TYK1) (P29376 17-864): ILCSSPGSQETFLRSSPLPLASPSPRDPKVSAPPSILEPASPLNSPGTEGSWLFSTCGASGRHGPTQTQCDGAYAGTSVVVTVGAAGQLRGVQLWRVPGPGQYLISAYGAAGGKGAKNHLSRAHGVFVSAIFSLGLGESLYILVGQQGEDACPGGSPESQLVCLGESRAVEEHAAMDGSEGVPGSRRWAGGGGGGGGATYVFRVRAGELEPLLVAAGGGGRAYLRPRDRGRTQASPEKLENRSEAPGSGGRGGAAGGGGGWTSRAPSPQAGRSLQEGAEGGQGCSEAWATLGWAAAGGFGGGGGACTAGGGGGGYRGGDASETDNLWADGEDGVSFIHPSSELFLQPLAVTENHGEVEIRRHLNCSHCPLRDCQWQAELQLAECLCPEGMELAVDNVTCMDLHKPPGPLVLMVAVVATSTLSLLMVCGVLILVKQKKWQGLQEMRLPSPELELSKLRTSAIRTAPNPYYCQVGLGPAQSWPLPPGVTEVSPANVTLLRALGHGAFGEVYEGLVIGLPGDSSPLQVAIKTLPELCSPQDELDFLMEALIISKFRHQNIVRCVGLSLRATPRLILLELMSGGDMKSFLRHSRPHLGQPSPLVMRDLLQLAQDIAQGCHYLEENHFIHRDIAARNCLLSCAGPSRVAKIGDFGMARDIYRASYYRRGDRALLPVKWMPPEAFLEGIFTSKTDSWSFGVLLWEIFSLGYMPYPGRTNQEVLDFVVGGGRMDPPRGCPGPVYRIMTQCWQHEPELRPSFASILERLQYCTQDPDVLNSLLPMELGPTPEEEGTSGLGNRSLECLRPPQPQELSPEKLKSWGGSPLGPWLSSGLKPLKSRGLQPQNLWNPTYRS
Chain of MAP2K4 (MEK4) (P45985 whole entry): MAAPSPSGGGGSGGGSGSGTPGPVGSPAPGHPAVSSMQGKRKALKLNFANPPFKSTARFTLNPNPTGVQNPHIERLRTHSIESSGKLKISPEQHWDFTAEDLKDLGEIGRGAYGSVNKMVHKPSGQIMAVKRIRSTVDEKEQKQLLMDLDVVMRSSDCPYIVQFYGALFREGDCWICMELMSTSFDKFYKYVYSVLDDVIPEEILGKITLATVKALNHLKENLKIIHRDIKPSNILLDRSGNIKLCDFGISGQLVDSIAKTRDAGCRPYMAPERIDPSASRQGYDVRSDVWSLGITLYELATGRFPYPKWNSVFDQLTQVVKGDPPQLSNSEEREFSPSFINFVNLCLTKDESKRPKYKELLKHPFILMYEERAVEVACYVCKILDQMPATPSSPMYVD
Chain of ERBB2 (HER2) (P04626 23-1255): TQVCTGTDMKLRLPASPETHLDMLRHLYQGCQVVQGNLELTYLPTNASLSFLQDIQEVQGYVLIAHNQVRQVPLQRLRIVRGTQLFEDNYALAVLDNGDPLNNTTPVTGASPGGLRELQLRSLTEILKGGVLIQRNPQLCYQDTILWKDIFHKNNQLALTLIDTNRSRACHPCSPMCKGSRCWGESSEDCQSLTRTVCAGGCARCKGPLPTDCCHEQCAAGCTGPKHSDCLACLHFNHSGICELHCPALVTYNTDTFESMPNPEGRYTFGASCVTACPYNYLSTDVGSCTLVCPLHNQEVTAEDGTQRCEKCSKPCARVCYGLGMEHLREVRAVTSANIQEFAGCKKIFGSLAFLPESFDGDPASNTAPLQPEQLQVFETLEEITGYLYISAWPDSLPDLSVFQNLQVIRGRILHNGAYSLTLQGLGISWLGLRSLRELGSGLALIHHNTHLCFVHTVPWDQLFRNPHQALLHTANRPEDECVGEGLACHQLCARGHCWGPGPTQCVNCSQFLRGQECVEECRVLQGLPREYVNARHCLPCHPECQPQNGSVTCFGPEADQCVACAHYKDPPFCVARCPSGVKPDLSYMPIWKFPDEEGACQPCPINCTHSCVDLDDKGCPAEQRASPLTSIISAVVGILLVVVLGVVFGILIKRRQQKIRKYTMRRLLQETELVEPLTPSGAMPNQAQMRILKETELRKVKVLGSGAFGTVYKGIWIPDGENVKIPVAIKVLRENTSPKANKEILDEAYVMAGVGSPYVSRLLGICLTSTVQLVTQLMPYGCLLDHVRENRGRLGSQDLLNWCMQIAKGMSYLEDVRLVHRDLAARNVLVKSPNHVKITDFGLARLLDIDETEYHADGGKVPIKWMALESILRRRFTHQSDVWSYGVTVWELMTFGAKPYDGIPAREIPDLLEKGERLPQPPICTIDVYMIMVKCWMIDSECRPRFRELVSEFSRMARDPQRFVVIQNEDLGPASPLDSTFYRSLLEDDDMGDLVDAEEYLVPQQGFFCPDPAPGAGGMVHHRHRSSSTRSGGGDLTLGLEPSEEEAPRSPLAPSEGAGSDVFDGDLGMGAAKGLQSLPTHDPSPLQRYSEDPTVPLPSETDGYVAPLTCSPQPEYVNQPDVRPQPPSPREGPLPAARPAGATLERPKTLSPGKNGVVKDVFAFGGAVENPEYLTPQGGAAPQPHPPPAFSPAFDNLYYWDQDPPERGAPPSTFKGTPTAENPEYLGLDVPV

SMILES: C[C@@H]1CCC(c2cc3c4c(cncc4c2)[C@H](C)C3)=C1C=O [323-1, (15R,2R)-Delavatine A]
- IC50 [1]: > 20 µM
- IC50 [2]: > 20 µM
- IC50 [3]: > 20 µM
- IC50 [4]: 6.13 µM
- IC50 [5]: > 20 µM
- IC50 [6]: 7.95 µM
- IC50 [7]: > 20 µM
- IC50 [8]: > 20 µM
- IC50 [9]: > 20 µM
- IC50 [10]: > 20 µM
- IC50 [11]: 6.22 µM
- IC50 [12]: > 20 µM
- IC50 [13]: > 20 µM
- IC50 [14]: > 20 µM
- IC50 [15]: > 20 µM
- IC50 [16]: 2010 nM
- IC50 [17]: > 20 µM
- Ki [18, 21]: ~94 µM
- Ki [18, 22]: 94 µM
- IC50 [19]: > 20 µM
- IC50 [20]: > 20 µM

SMILES: C[C@@H]1CCC(c2cc3c4c(cncc4c2)[C@@H](C)C3)=C1C=O [323-2, (15S,2R)-Delavatine A]
- IC50 [1]: > 20 µM
- IC50 [2]: > 20 µM
- IC50 [3]: > 20 µM
- IC50 [4]: 7.52 µM
- IC50 [5]: > 20 µM
- IC50 [6]: 9.25 µM
- IC50 [7]: > 20 µM
- IC50 [8]: > 20 µM
- IC50 [9]: > 20 µM
- IC50 [10]: > 20 µM
- IC50 [11]: 5.25 µM
- IC50 [12]: > 20 µM
- IC50 [13]: > 20 µM
- IC50 [14]: > 20 µM
- IC50 [15]: > 20 µM
- IC50 [16]: 1220 nM
- IC50 [17]: > 20 µM
- Ki [18, 21]: ~75 µM
- Ki [18, 22]: 75 µM
- Potency to disrupt STAT3/GpYLPQTV relative to S3I-201 ([18]; higher than S3I-201): around 5 fold
- IC50 [19]: > 20 µM
- IC50 [20]: > 20 µM
